According to patent publication US4118506A, “Pharmaceutical compositions containing 1,3-dithiol-2-ylidene malonate derivatives” (Nihon Nohyaku Co., Ltd., priority 1976, dated 1978):

Tests used:
[1] = test system: acute liver damage induced by chloroform; assay: protective effect on acute liver damage associated with centrilobular necrosis, chloroform model; type: in vivo, mouse (dd); settings: chloroform 0.2 ml/kg oral; 100 mg/kg oral 6 h before; 24 h after
Experimental: Bromobenzene (hereinafter abbreviated as BB), Dimethylnitrosamine (hereinafter abbreviated as DMN) and chloroform (hereinafter abbreviated as CF) resemble carbon tetrachloride in inducing liver damage associated with centrilobular necrosis.
Test compound or anethol trithion was orally administered to animal at the dose of 100 mg/kg. Twenty four hours after it (in the case of dimethylnitrosamine, exceptionally fifteen hours after it) the animals were sacrificed and blood samples were collected. Indices of hepatotoxicity adoptable in each chemical were measured, from which the efficacy of the compound was evaluated.
CF male mouse 0.2 oral p-GPT activity

[2] = test system: bile flow and excretion of biliary salt; assay: cholagogic action: bile flow and biliary salt excretion; type: in vivo, rat (SD-JCL strain); set-up: key to excretion of biliary salt: relative to 1 h pre-drug amount taken as 100
Experimental: The male rat (4 week-old, SD-JCL strain) was anesthetized with sodium pentobarbital (37.5 mg/kg, intraperitoneal injection). The abdominal cavity was opened through a midline incision. The common bile duct was catheterized with polyethylene tube o.d. 0.8 mm. The catheter was brought to the outside through the abdominal incision wound prior to closing. Bile was collected from the catheter continuously with time intervals of one hour. The quantity of bile produced in one hour was determined by weighing and that of biliary salt was determined by enzymatic method (Ikagaku Jikkenho Koza 1B, Biological Constituents II, edited by Tamino […]). The amount of biliary salts was represented as chloic acid equivalent. In the representation of the results, the quantities of bile and biliary salts produced in one hour prior to the administration of drug were taken as 100. […] As reference, anethol trithion was used.

[3] = test system: chronic liver damage induced by thioacetamide; assay: therapeutic effect on chronic liver damage, thioacetamide model (BSP test); type: in vivo, rat (Sprague Dawley); settings: Group B, diet + 0.2% compound
Experimental: In the tests of this Example, TAA was repeatedly administered to animals to prepare test animals suffering from somewhat chronic liver damages, and then the present compounds were administered thereto to know whether or not the compounds were effective against chronic hepatitis.
The degree of the liver damage and the therapeutic effects of the compounds were evaluated according to BSP test. The BSP test is a method in which BSP (sulfobromophthalein sodium), a dye known to be quickly metabolized in and excreted from the liver, is intravenously injected into animals and, after a definite period of time, the blood is taken out to measure the amount of BSP remaining in the plasma. In case the animals are suffering from the liver damage, the dye will remain, according to the degree of the damage, at the stage where a major portion of BSP is metabolized and excreted in the case of normal animals.
Five groups of rats (Sprague Dawley strain) were treated as follows:
Group A: The rats were orally administered with 100 mg/kg of thioacetamide,at 3 days intervals for 36 days (12 times of the administration), then were submitted for 10 days to a normal diet.
Group B: The rats were orally administered with 100 mg/kg of thioacetamide at 3 days intervals for 36 days (12 times of the administration), then were submitted for 10 days to the normal diet + 0.2% of compound 4.
Group C: The rats were submitted to the normal diet as the control.
Five rats were sacrificed from each group at appropriate intervals for BSP (sulfobromophthalein sodium) test, the results of which were shown as amounts (mg) of BSP remaining in ldl of plasma.

[4] = test system: liver injury and chronic hepatitis; assay: clinical test on liver injury and chronic hepatitis; type: in vivo, human; settings: for p-GOT activity / p-GPT activity: tablets of Example 6, 12 a day
Experimental: Six patients were used for the test. One was diagnosed as liver injury caused by administration of PAS (p-aminosalicyclic acid) for three months and five were diagnosed as chronic hepatitis by doctor.
The tablets obtained in Example 6 were orally administered to the respective patients at the dose of twelve tablets a day (four tablets after every meal).
Curing effects on the liver injury and chronic hepatitis after administration were evaluated by measuring plasma transaminase activity (p-GPT and p-GOT).

[5] = 5 hours after administration, 200 mg/kg oral
[6] = patient 1, liver injury (PAS), person, before administration
[7] = patient 2, chronic hepatitis, before administration
[8] = patient 3, chronic hepatitis, before administration
[9] = patient 4, chronic hepatitis, before administration
[10] = patient 5, chronic hepatitis, before administration
[11] = patient 6, chronic hepatitis, before administration

CC(C)OC(=O)C(C(=O)OC(C)C)=C1SC=CS1 [Compound 4, diisopropyl 1,3-dithiol-2-ylidene malonate]
p-GPT [1]: 58 ± 15 Karmen unit
excretion of biliary salt ([2]; 200 mg/kg oral, 1 hour after treatment, before treatment = 100): 108 ± 15
excretion of biliary salt ([2]; 200 mg/kg oral, 2 hours after treatment, before treatment = 100): 132 ± 25
excretion of biliary salt ([2]; 200 mg/kg oral, 3 hours after treatment, before treatment = 100): 138 ± 27
excretion of biliary salt ([2]; 200 mg/kg oral, 4 hours after treatment, before treatment = 100): 117 ± 27
excretion of biliary salt ([2]; 200 mg/kg oral, 5 hours after treatment, before treatment = 100): 90 ± 21
amount of total biliary salts excreted relative to control [2, 5]: 1.7 times
quantity of total excreted bile relative to control [2, 5]: 1.2 times
excretion of biliary salt ([2]; before treatment, 1 hour, taken as 100 (normalisation)): 100
BSP remaining in plasma ([3]; 2 days after compound administration): 7.2 ± 2.5 mg/dL
BSP remaining in plasma ([3]; 5 days after compound administration): 2.8 ± 0.7 mg/dL
BSP remaining in plasma ([3]; 10 days after compound administration): 0.5 ± 0.1 mg/dL
plasma transaminase activity (p-GPT and p-GOT) ([4]; in words): useful for normalizing plasma transaminase activity
p-GOT activity ([4]; patient 1, after 3 days): 270 Karmen Unit
p-GPT activity ([4]; patient 1, after 3 days): 215 Karmen Unit
p-GOT activity ([4]; patient 1, after 4 days): 231 Karmen Unit
p-GPT activity ([4]; patient 1, after 4 days): 169 Karmen Unit
p-GOT activity ([4]; patient 1, after 7 days): 81 Karmen Unit
p-GPT activity ([4]; patient 1, after 7 days): 94 Karmen Unit
p-GOT activity ([4]; patient 1, after 12 days): 36 Karmen Unit
p-GPT activity ([4]; patient 1, after 12 days): 41 Karmen Unit
p-GOT activity ([4]; patient 1, after 15 days): 37 Karmen Unit
p-GPT activity ([4]; patient 1, after 15 days): 24 Karmen Unit
p-GOT activity ([4]; patient 1, after 19 days): 24 Karmen Unit
p-GPT activity ([4]; patient 1, after 19 days): 21 Karmen Unit
p-GOT activity [4, 6]: 270 Karmen Unit
p-GPT activity [4, 6]: 270 Karmen Unit
p-GOT activity ([4]; patient 2, after 14 days): 68 Karmen Unit
p-GPT activity ([4]; patient 2, after 14 days): 62 Karmen Unit
p-GOT activity ([4]; patient 2, after 35 days): 24 Karmen Unit
p-GPT activity ([4]; patient 2, after 35 days): 43 Karmen Unit
p-GOT activity [4, 7]: 270 Karmen Unit
p-GPT activity [4, 7]: 270 Karmen Unit
p-GOT activity ([4]; patient 3, after 14 days): 100 Karmen Unit
p-GPT activity ([4]; patient 3, after 14 days): 96 Karmen Unit
p-GOT activity ([4]; patient 3, after 56 days): 77 Karmen Unit
p-GPT activity ([4]; patient 3, after 56 days): 87 Karmen Unit
p-GOT activity [4, 8]: 145 Karmen Unit
p-GPT activity [4, 8]: 163 Karmen Unit
p-GOT activity ([4]; patient 4, after 2 days): 60 Karmen Unit
p-GPT activity ([4]; patient 4, after 2 days): 113 Karmen Unit
p-GOT activity ([4]; patient 4, after 9 days): 68 Karmen Unit
p-GPT activity ([4]; patient 4, after 9 days): 94 Karmen Unit
p-GOT activity ([4]; patient 4, after 16 days): 49 Karmen Unit
p-GPT activity ([4]; patient 4, after 16 days): 62 Karmen Unit
p-GOT activity ([4]; patient 4, after 62 days): 33 Karmen Unit
p-GPT activity ([4]; patient 4, after 62 days): 33 Karmen Unit
p-GOT activity [4, 9]: 80 Karmen Unit
p-GPT activity [4, 9]: 185 Karmen Unit
p-GOT activity ([4]; patient 5, after 8 days): 78 Karmen Unit
p-GPT activity ([4]; patient 5, after 8 days): 119 Karmen Unit
p-GOT activity ([4]; patient 5, after 28 days): 65 Karmen Unit
p-GPT activity ([4]; patient 5, after 28 days): 79 Karmen Unit
p-GOT activity ([4]; patient 5, after 30 days): 57 Karmen Unit
p-GPT activity ([4]; patient 5, after 30 days): 57 Karmen Unit
p-GOT activity [4, 10]: 95 Karmen Unit
p-GPT activity [4, 10]: 94 Karmen Unit
p-GOT activity ([4]; patient 6, after 14 days): 108 Karmen Unit
p-GPT activity ([4]; patient 6, after 14 days): 306 Karmen Unit
p-GOT activity ([4]; patient 6, after 23 days): 48 Karmen Unit
p-GPT activity ([4]; patient 6, after 23 days): 121 Karmen Unit
p-GOT activity ([4]; patient 6, after 36 days): 33 Karmen Unit
p-GPT activity ([4]; patient 6, after 36 days): 65 Karmen Unit
p-GOT activity ([4]; patient 6, after 56 days): 24 Karmen Unit
p-GPT activity ([4]; patient 6, after 56 days): 53 Karmen Unit
p-GOT activity ([4]; patient 6, after 82 days): 24 Karmen Unit
p-GPT activity ([4]; patient 6, after 82 days): 39 Karmen Unit
p-GOT activity [4, 11]: 83 Karmen Unit
p-GPT activity [4, 11]: 354 Karmen Unit
